How the values were obtained:
Format in all cases: in vivo, mouse
[1] = system: C57BL/6J-ob/ob mice; test: Diabetes model mice: oral glucose tolerance test (OGTT); details: nobiletin 200 mg/kg/day, Pioglitazone 30 mg/kg/day
Protocol: The oral glucose tolerance test (OGTT) for the diabetes model mice (ob/ob) to which the nobiletin and others were administrated was subjected to the glucose tolerance test for studying the effects.
From 4 weeks after the start of the administration, the mice in each group were fasted for 16 hours, and then they were administrated 2 g/kg body weight of glucose per os. After the administration of glucose, […] of blood was collected from the tail vein at the time point of 0, 30, 60 and 120 minutes. Collected blood was centrifuged at 4° C., 3,000×g, for 15 minute to obtain plasma (n=10). The blood glucose level was measured as the same as that described in the example 1.

[2] = system: male C57BL/6 mice; test: Nobiletin, obesity-induced mice: glucose tolerance test (OGTT); details: for Blood glucose level (OGTT): HFD
Protocol: The sugar tolerance test was carried out as the same as those done in the example 2 (n=9).

[3] = system: adipose cells of the white adipose tissue; test: Nobiletin, obesity-induced mice: size of the adipose cells; details: epididymis adipose tissue sections
Text: After the completion of the experiment, the adipose tissue of mice epididymis was excised to prepare sections to stain by using both of hematoxylin and eosin (n=9). These sections were observes under the microscope with 200-fold magnification to compare cell seizes in the field of photomicroscope vision.

[4] = system: GLUT4 protein; test: Diabetes model mice: GLUT4 protein expression level (Western blotting); details: ob/ob mice, nobiletin 200 mg/kg/day, Pioglitazone 30 mg/kg/day
Protocol: After finishing the experiment, the white adipose tissue and skeletal muscle were excised according to that described in the example 1, protein expression level of GLUT 4 were detected by using Western blotting method. The expression levels of GLUT4 protein were determined by using Na^+/K^+ ATPase α-1 protein as an internal reference.

[5] = system: C57BL/6J-ob/ob mice; details: p.o. daily 5 weeks, nobiletin 200 mg/kg/day (No200), Pioglitazone 30 mg/kg/day (P30)
Text: Diabetes model mice and the experimental system were as follows. As the diabetes model mice, 7 week age of male C57BL/6J-ob/ob (hereinafter, it was referred to as “ob/ob”) were purchased from Charles River Laboratories Japan Inc., and used as 10 mice/group.
For the negative control group (from FIGS. 5 to 10, it was shown as Vehicle; hereinafter, it is referred to as “solvent administration group”), 0.3% of CMC aqueous solution was administrated orally for 5 weeks in everyday at the dosage of 0.01 mL/g body weight. For the positive control group (in FIGS. 5 to 10 and hereinafter, it was referred to as “P30 administrated group”), 3 mg of Pioglitazone was suspended in 0.3% CMC aqueous solution so as to be orally administrated at the dosage of 0.01 mL/g body weight for 5 weeks in everyday (dosage: 30 mg/kg body weight/day).
For the sample ingestion group (in FIGS. 5 to 10 and hereinafter, it is referred to as “No200 ingestion group”), 20 mg of nobiletin purified as mentioned above (1) was suspended in 0.3% of carboxymethylcellulose (CMC) aqueous solution so as to be orally administrated at the dose of 0.01 mL/g body weight for 5 weeks in everyday (the dose: 200 mg/kg/day).
The body weight of mice, ingestion amount, weight of the white adipose tissue and liver weight of each mice were measured as the same as described in the example 3.

[6] = system: gluconeogenesis-related genes PEPCK, G6Pase; test: Diabetes model mice: mRNA expression in the liver (real time RT-PCR); details: ob/ob mice, Vehicle = 1.00, nobiletin 200 mg/kg/day, Pioglitazone 30 mg/kg/day, 5 weeks
Protocol: (§1) The effects by nobiletin ingestion to the mRNA expression in the white adipose tissue and the liver were measured (n=10).
(§2) After the termination of the administration period for 5 weeks, mRNA expression levels of respective genes shown in the table 10 were determined by using real time RT-PCR method. The real time RT-PCR was carried out according to an operation manual provided by ISOGEN (NIPPON GENE CO., LTD); RNA was extracted from the white adipose tissue and the liver. Next, cDNA was prepared from using 1 μg of RNA by using Reverse Transcription System kit (Promega Corp., USA). Next, suitable primers for the above-mentioned genes were prepared according to the operation manual provided by FastStart universal SYBR (a registered trademark) Greenmaster PCR KIT agent (Roche Diagnostics K. K., Germany).
(§3) Real time PCR system 7700HT (Applied Biosytems, USA) was used for the determination to carry out the real time PCR by using the cDNAs as templates. Each reaction conditions were set according to the manual of the PCR KIT. Quantitative analysis of the RNA amount was carried out based on comparative Ct method by using glyceraldehyde 3-phosphate dehydrogenase (GAPDH) as the standard reference.

[7] = system: GLUT4, Adiponectin, TNF-α, MCP-1, IL-6, PPARγ, aP2, LPL, Perilipin genes; test: Diabetes model mice: mRNA expression in the white adipose tissue (real time RT-PCR); details: ob/ob mice, Vehicle = 1.00, nobiletin 200 mg/kg/day, Pioglitazone 30 mg/kg/day, 5 weeks
Protocol: as §1, §2, §3

[8] = system: SREBP1-c, SCD1, FAS, ACC1, DGAT1, GLUT4, Adiponectin, TNF-α, MCP-1, PPARγ genes; test: Nobiletin, obesity-induced mice: gene expression in the white adipose tissue (mRNA)
Protocol: mRNA expression level was determined by using real time PCR as follows. According to the direction attached with ISOGEN (Nippon Gene Co., Ltd), RNA was extracted from white adipose tissue, liver, and skeletal muscle. Next, cDNA was prepared from 1 μg of RNA by using Reverse Transcription System kit (Promega, USA). Subsequently, according to the direction attached with FastStart universal SYBR (Registered trademark) Greenmaster PCR kit reagent (Roche Diagnostics, Germany), primers suitable for each intended gene in the following experiments were synthesized. Real time PCR system 7700 HT (Applied Biosytems, USA) was used for the measurement, the cDNA was used as templates for the real time PCR. Reaction conditions were followed to those for the PCR kit reagents. Quantitative analysis of RNA level was performed by Comparison Ct method, using glyceraldehyde 3-phosphate dehydrogenase (GAPDH) as the standard.
The expression of mouse lipid biosynthesis-related gene and other gene shown in the following table 24 after obesity induction by ingesting the high fat diet were determined as mRNA levels to study the effects of nobiletin to these gene expression (n=9). The expression levels of each gene were shown in the ratio when those of the HFD were 1.

[9] = Western blotting, Vehicle = 1.00, 5 weeks
[10] = ratio HFD = 1, nobiletin 10 mg/kg/day p.o. 5 weeks
[11] = ratio HFD = 1, nobiletin 100 mg/kg/day p.o. 5 weeks

## COc1ccc(-c2cc(=O)c3c(OC)c(OC)c(OC)c(OC)c3o2)cc1OC [nobiletin]
[1]; 0 min after 2 g/kg glucose p.o.
  Blood glucose level (OGTT): 145.26 ± 7.56 mg/dL
[1]; 30 min after 2 g/kg glucose p.o.
  Blood glucose level (OGTT): 304.41 ± 20.23 mg/dL
[1]; 60 min after 2 g/kg glucose p.o.
  Blood glucose level (OGTT): 207.47 ± 11.56 mg/dL
[1]; 120 min after 2 g/kg glucose p.o.
  Blood glucose level (OGTT): 192.57 ± 9.01 mg/dL
[2]; 0 to 120 minutes, nobiletin 10 mg/kg/day p.o.
  area under the curve (AUC) of blood glucose in OGTT, compared with HFD administration group: no significant difference
[2]; 0 to 120 minutes, nobiletin 100 mg/kg/day p.o., p<0.05
  area under the curve (AUC) of blood glucose in OGTT, compared with HFD group: significant difference
[2]; 0 minute after glucose, nobiletin 10 mg/kg/day p.o.
  Blood glucose level (OGTT): 157.47 ± 10.54 mg/dL
[2]; 0 minute after glucose, nobiletin 100 mg/kg/day p.o.
  Blood glucose level (OGTT): 128.49 ± 5.59 mg/dL
[2]; 15 minutes after glucose, nobiletin 10 mg/kg/day p.o.
  Blood glucose level (OGTT): 384.94 ± 17.66 mg/dL
[2]; 15 minutes after glucose, nobiletin 100 mg/kg/day p.o.
  Blood glucose level (OGTT): 340.91 ± 16.88 mg/dL
[2]; 30 minutes after glucose, nobiletin 10 mg/kg/day p.o.
  Blood glucose level (OGTT): 342.5 ± 27.08 mg/dL
[2]; 30 minutes after glucose, nobiletin 100 mg/kg/day p.o.
  Blood glucose level (OGTT): 334.84 ± 16.98 mg/dL
[2]; 60 minutes after glucose, nobiletin 10 mg/kg/day p.o.
  Blood glucose level (OGTT): 271.76 ± 31.64 mg/dL
[2]; 60 minutes after glucose, nobiletin 100 mg/kg/day p.o.
  Blood glucose level (OGTT): 267.27 ± 18.22 mg/dL
[2]; 120 minutes after glucose, nobiletin 10 mg/kg/day p.o.
  Blood glucose level (OGTT): 217.1 ± 35.92 mg/dL
[2]; 120 minutes after glucose, nobiletin 100 mg/kg/day p.o.
  Blood glucose level (OGTT): 178.45 ± 15.37 mg/dL
[3]; nobiletin 10 mg/kg/day p.o. 5 weeks
  adipose cell size compared with HFD group: not large difference
[3]; nobiletin 100 mg/kg/day p.o. 5 weeks
  adipose cell size compared with HFD group: became smaller
[4]; [9]
  Gene expression level (ratio), Skeletal muscle (GLUT4 protein): 6.32
  Gene expression level (ratio), White adipose tissue (GLUT4 protein): 1.75
[4]
  GLUT4 protein expression amount in the skeletal muscle, times higher than vehicle administration group: about 6 times
  GLUT4 protein expression level in the white adipose tissue, times higher than vehicle administration group: 1.7 times
[5]
  Gained body weight: 9.33 ± 0.49 g
  white adipose tissue: 5.69 ± 0.17 g
[6]
  Gene expression level (ratio), [L]G6Pase: 0.29 ± 0.01
  Gene expression level (ratio), [L]PEPCK: 0.34 ± 0.03
[7]
  Gene expression level (ratio), [W]Adiponectin: 1.54 ± 0.04
  Gene expression level (ratio), [W]GLUT4: 1.88 ± 0.12
  Gene expression level (ratio), [W]IL-6: 0.55 ± 0.03
  Gene expression level (ratio), [W]LPL: 1.50 ± 0.18
  Gene expression level (ratio), [W]MCP-1: 0.64 ± 0.02
  Gene expression level (ratio), [W]PPARγ: 1.79 ± 0.02
  Gene expression level (ratio), [W]Perilipin: 1.61 ± 0.17
  Gene expression level (ratio), [W]TNF-α: 0.80 ± 0.048
  Gene expression level (ratio), [W]aP2: 1.10 ± 0.01
[8]; [10]
  Expression level, ACC1: 2.06 ± 0.05
  Expression level, Adiponectin: 1.97 ± 0.09
  Expression level, DGAT1: 2.17 ± 0.19
  Expression level, FAS: 2.78 ± 0.06
  Expression level, GLUT4: 1.34 ± 0.09
  Expression level, MCP-1: 0.44 ± 0.02
  Expression level, PPARγ: 1.61 ± 0.11
  Expression level, SCD1: 2.30 ± 0.06
  Expression level, SREBP1-c: 2.15 ± 0.21
  Expression level, TNF-α: 1.06 ± 0.12
[8]; [11]
  Expression level, ACC1: 1.69 ± 0.07
  Expression level, Adiponectin: 2.02 ± 0.08
  Expression level, DGAT1: 1.80 ± 0.14
  Expression level, FAS: 2.50 ± 0.03
  Expression level, GLUT4: 1.35 ± 0.07
  Expression level, MCP-1: 0.35 ± 0.01
  Expression level, PPARγ: 1.36 ± 0.05
  Expression level, SCD1: 2.95 ± 0.17
  Expression level, SREBP1-c: 1.53 ± 0.20
  Expression level, TNF-α: 0.58 ± 0.14

— patent publication US20120196927A1, “PROPHYLACTIC AND/OR THERAPEUTIC AGENT FOR METABOLIC SYNDROME” (priority 2009, published 2012)
